The source of these data is patent publication US11964976B1, “Substituted pyrido[3′,4′:4,5]pyrrolo[3,2-c][1,6]naphthyridines as CK2 inhibitors” (KING FAISAL UNIVERSITY, priority 2023, dated 2024).

One assay concerns PC3 (prostate). The experiment in a line: In vitro cytotoxic activity (MTT) assay, PC3. The class given is cell-based. The following applies: Homo sapiens, Prostate cell; PC3 (prostate) cells, exposed for 96 hours; read-out: IC50, concentration eliciting 50% inhibition of cell proliferation. The procedure:
(§1) Compounds 1-15 were screened for their in vitro cytotoxic activity utilizing a 3-(4,5-dimethyl-thiazol-2-yl)-2,5-diphenyltetrazolium bromide (MTT) assay against selected cancer human cell lines consisting of PC3 (prostate), HCT116 (colon), A375 (melanoma), H1299 (lung), MIAPaCa-2 (pancreas), HL60 (leukemia), MCF7 (breast), MDA-MB-231 (breast) (T. Mosmann, J. Immunol. Meth., 1983, 65, 55-63). The cells were cultured at 37° C. in RMPI1640 medium supplemented with 10% fetal bovine serum, 50 IU/mL penicillin, and 50 μg/mL streptomycin in a 5% CO2 incubator. All cells were sub-cultured 3 times/week by trypsinisation. Viable cells were seeded and allowed to adhere for 12 h before a test drug was added in 96-well plates at an initial density of 1.0×10^5 cells/mL. Tumor cell lines were separately exposed to various concentrations of the tested compounds followed by incubation at a temperature of 37° C. during 96 hours inside a medium of fresh RMPI 1640. Cells were subsequently incubated at 37° C. using MTT at 0.5 mg/mL during 4 hours. After removal of supernatant, formazan crystals were dissolved in isopropanol and the optical density was measured at 570 nm. CX-4945 was used as a positive control.

A further assay has as its system HCT116 (colon). The assay can be described thus: In vitro cytotoxic activity (MTT) assay, HCT116. The assay is classed as cell-based. The following applies: Homo sapiens, HCT-116; HCT116 (colon) cells, exposed for 96 hours; read-out: IC50, concentration eliciting 50% inhibition of cell proliferation. The procedure: as §1
For the next assay, the system named is A375 (melanoma). The assay can be described thus: In vitro cytotoxic activity (MTT) assay, A375. The following applies: Homo sapiens, A-375; A375 (melanoma) cells, exposed for 96 hours; read-out: IC50, concentration eliciting 50% inhibition of cell proliferation. The assay is classed as cell-based. The procedure:
as §1

In a further assay the test system is H1299 (lung). The experiment in a line: In vitro cytotoxic activity (MTT) assay, H1299. The assay is classed as cell-based. The following applies: Homo sapiens, NCI-H1299; H1299 (lung) cells, exposed for 96 hours; read-out: IC50, concentration eliciting 50% inhibition of cell proliferation. The procedure:
as §1

A further assay has as its system MIAPaCa-2 (pancreas). The assay can be described thus: In vitro cytotoxic activity (MTT) assay, MIAPaCa-2. The class given is cell-based. The following applies: Homo sapiens, MIA PaCa-2; MIAPaCa-2 (pancreas) cells, exposed for 96 hours; read-out: IC50, concentration eliciting 50% inhibition of cell proliferation. The procedure: as §1
The test system of another assay is HL60 (leukemia). The assay can be described thus: In vitro cytotoxic activity (MTT) assay, HL60. The class given is cell-based. Particulars: Homo sapiens, HL-60; HL60 (leukemia) cells, exposed for 96 hours; read-out: IC50, concentration eliciting 50% inhibition of cell proliferation. The procedure: as §1
The next assay has as its system MCF7 (breast). The experiment in a line: In vitro cytotoxic activity (MTT) assay, MCF7. Particulars: Homo sapiens; MCF7 (breast) cells, exposed for 96 hours; read-out: IC50, concentration eliciting 50% inhibition of cell proliferation. The class given is cell-based. The procedure:
as §1

Another assay has as its system MDA-MB-231 (breast). The assay can be described thus: In vitro cytotoxic activity (MTT) assay, MDA-MB-231. The assay is classed as cell-based. Particulars: Homo sapiens; MDA-MB-231 (breast) cells, exposed for 96 hours; read-out: IC50, concentration eliciting 50% inhibition of cell proliferation. The procedure:
as §1

Assay [1] concerns the target T1, recombinant human CK2 (RRββ-holoenzyme) (Homo sapiens, UniProt P68400).
T1 construct: purchased Millipore
The assay can be described thus: CK2 Kinase Assay (33P-ATP, filter plate). The class given is biochemical. Particulars: final ATP concentration 15 μM, 10 min at 30° C.; read-out: protein kinase CK2 IC50. The procedure: CK2 Kinase Assay was conducted using the protocol as described in Pierre F. et al; J. Med. Chem. 2011, 54, 635-654. The tested compounds in aqueous solution were added at a volume of 10 μL to a reaction mixture comprising 10 μL of assay dilution buffer (ADB; 20 mM MOPS, pH 7.2, 25 mM β-glycerol phosphate, 5 mM EGTA, 1 mM sodium orthovanadate, and 1 mM dithiothreitol), 10 μL of substrate peptide (RRRDDDSDDD, dissolved in ADB at a concentration of 1 mM), 10 μL of recombinant human CK2 (RRββ-holoenzyme, 25 ng dissolved in ADB; Millipore). Reactions were initiated by the addition of 10 μL of ATP solution (90% 75 mMMgCl2, 75 μM ATP (final ATP concentration: 15 μM) dissolved in ADB; 10% [γ-33P] ATP (stock 1mCi/100 μL; 3000 Ci/mmol (Perkin-Elmer) and maintained for 10 min at 30° C. The reactions were quenched with 100 μL of 0.75% phosphoric acid and then transferred to and filtered through a phosphor cellulose filter plate (Millipore). After washing each well five times with 0.75% phosphoric acid, the plate was dried under vacuum for 5 min and, following the addition of 15 μL of scintillation fluid to each well, the residual radioactivity was measured using a Wallac luminescence counter. The IC50 values were derived from eight concentrations of test inhibitors.

T1 sequence (P68400 whole entry): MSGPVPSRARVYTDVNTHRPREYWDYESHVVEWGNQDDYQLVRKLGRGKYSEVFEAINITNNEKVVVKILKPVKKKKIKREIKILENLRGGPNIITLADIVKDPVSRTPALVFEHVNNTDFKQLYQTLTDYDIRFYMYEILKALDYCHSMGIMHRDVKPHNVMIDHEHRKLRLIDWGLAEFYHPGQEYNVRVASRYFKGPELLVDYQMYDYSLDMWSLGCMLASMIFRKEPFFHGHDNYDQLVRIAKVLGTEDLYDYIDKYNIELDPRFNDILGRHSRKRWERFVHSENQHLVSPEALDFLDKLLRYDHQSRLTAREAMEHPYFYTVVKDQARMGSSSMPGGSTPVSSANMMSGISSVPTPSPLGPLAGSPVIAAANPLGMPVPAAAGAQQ
T1 sequence (P67870 whole entry partner): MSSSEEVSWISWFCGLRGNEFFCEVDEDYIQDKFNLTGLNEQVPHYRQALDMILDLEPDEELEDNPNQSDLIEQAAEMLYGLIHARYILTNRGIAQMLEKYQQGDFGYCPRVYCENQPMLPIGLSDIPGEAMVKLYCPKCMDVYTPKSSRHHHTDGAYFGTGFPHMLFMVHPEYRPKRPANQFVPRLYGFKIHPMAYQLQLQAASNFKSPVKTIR

In the case of `Clc1cccc(Nc2nc3ccncc3c3[nH]c4ccncc4c23)c1` [Compound 1, N-(3-chlorophenyl)-11H-pyrido[3′,4′:4,5]pyrrolo[3,2-c][1,6]naphthyridin-6-amine], the IC50 was determined as 1 µM in the assay with PC3 (prostate); 1.3 µM in the assay with HCT116 (colon); 4.4 µM in the assay with A375 (melanoma); 1.2 µM with H1299 (lung); 1.1 µM in the assay with MIAPaCa-2 (pancreas); 3.5 µM with HL60 (leukemia). Further, the IC50 came out at 3.1 µM with MCF7 (breast), 2.6 µM in the assay on MDA-MB-231 (breast) and 0.029 µM in [1].
